Source: PMC7541675 (Molecular cancer therapeutics, 2020)
Where two headings read alike, the source gives them in different places.

Tests used:
[1] = tested on: ovarian cancer; settings: cited from earlier work
[2] = in vivo
[3] = Pharmacokinetic analyses of paclitaxel and sorafenib in plasma; settings: paclitaxel 80 mg/m^2 IV, C1D15 (with sorafenib); for Cmax: human, iv, Cmax mean (SD)
[4] = tested on: patients with advanced refractory solid tumors
[5] = clinical; settings: human, in vivo; for Cmax: Cmax mean (SD); for half-life: t1/2 mean (SD)
[6] = 200 mg BID; cited from earlier work
[7] = tested on: patients; settings: cited from earlier work
[8] = paclitaxel without bevacizumab, AURELIA paclitaxel cohort
[9] = recurrent ovarian cancer patients
[10] = in combination bevacizumab plus sorafenib, previous phase I studies
[11] = bevacizumab added to paclitaxel, AURELIA paclitaxel cohort

Question: With CC(=O)O[C@H]1C(=O)[C@@]2(C)[C@H]([C@H](OC(=O)c3ccccc3)[C@]3(O)C[C@H](OC(=O)[C@H](O)[C@@H](NC(=O)c4ccccc4)c4ccccc4)C(C)=C1C3(C)C)[C@]1(OC(C)=O)CO[C@@H]1C[C@@H]2O [paclitaxel] as the molecule, how does the ORR [1, 8] read?
Answer: Its ORR is 30.2%.

Question: And the OS [1, 8]?
Answer: The OS was 13.2 months.

Question: And the PFS [1, 8]?
Answer: Its PFS is 3.9 months.

Question: What about the “paclitaxel exposure with concurrent sorafenib (drug interaction)” value [2] of the same molecule?
Answer: The value was “no significant differences”.

Question: And the Cmax ([3]; cohort 1, sorafenib 200 mg BID 5/7, n=6)?
Answer: The Cmax was 4350 ng/mL.

Question: And the Cmax ([3]; cohorts 2/2 expansion, sorafenib 200 mg BID 7/7, n=13)?
Answer: Its Cmax is 3480 ng/mL.

Question: What about the “Cmax mean (SD)” value ([3]; cohort 3, sorafenib 400 mg BID 5/7, n=2) of the same molecule?
Answer: Its value is 3,804 (1306) ng/mL.

Question: For CNC(=O)c1cc(Oc2ccc(NC(=O)Nc3ccc(Cl)c(C(F)(F)F)c3)cc2)ccn1 [sorafenib], which “ORR, single agent” value [1, 9] is on record?
Answer: The value was 3%.

Question: And the “OS, single agent” value [1, 9]?
Answer: The value was 16 months.

Question: And the “PFS, single agent” value [1, 9]?
Answer: The value was 2 months.

Question: What about the ORR ([1]; sorafenib dosed sequentially with topotecan, TRIAS randomized phase II, platinum-resistant ovarian cancer) of the same molecule?
Answer: The ORR was 31%.

Question: And the PFS ([1]; sorafenib dosed sequentially with topotecan, TRIAS, p=0.002)?
Answer: Its PFS is 6.7 months.

Question: And the OS ([1]; sorafenib dosed sequentially with topotecan, TRIAS, p=0.017)?
Answer: The OS was 17 months.

Question: And the “t1/2 mean (SD)” value ([2]; human, po)?
Answer: The value was 6.5 (2.2) h.

Question: And the “AUC0–8 mean (SD)” value ([2]; human, po, 200 mg)?
Answer: Its value is 14,911 (8,174) ng*hr/mL.

Question: What about the “Cmax mean (SD)” value ([2]; human, po, 200 mg) of the same molecule?
Answer: The value was 4,539 (2,333) ng/mL.

Question: And the “Median number of cycles before sorafenib dose reduction to 200 mg QD 5/7” value ([4]; human, in vivo)?
Answer: The value was 3 cycles.

Question: What about the “Patients needing further sorafenib dose reduction to 200 mg QOD” value ([4]; human, in vivo) of the same molecule?
Answer: Its value is 21%.

Question: And the “Patients on study ≥ 4 months who had sorafenib dose reductions” value ([4]; human, in vivo)?
Answer: The value was 76%.

Question: What about the “Patients requiring further sorafenib dose reduction to 200 mg QD 5/7” value ([4]; human, in vivo) of the same molecule?
Answer: Its value is 62%.

Question: What about the “Recommended phase II dose (RP2D)” value ([4]; human, in vivo) of the same molecule?
Answer: The value was 200 mg BID 5/7.

Question: What about the “Maximum tolerated dose (MTD)” value ([4]; sorafenib oral, with bevacizumab 5 mg/kg Q2W and paclitaxel 80 mg/m^2 QW x 3 every 4 weeks) of the same molecule?
Answer: The value was 200 mg BID 7/7.

Question: And the Cmax ([5]; po, 200 mg)?
Answer: Its Cmax is 2760 ng/mL.

Question: And the AUC(0-t) ([5]; po, 400 mg, AUC0–8 mean (SD))?
Answer: Its AUC(0-t) is 23000 ng·h/mL.

Question: And the Cmax ([5]; po, 400 mg)?
Answer: The Cmax was 3820 ng/mL.

Question: And the half-life ([5]; po, 400 mg)?
Answer: The half-life was 468 min.

Question: What about the half-life ([5]; po) of the same molecule?
Answer: Its half-life is 240 min.

Question: What about the AUC(0-t) ([5]; sorafenib AUC0–8 in non-responders) of the same molecule?
Answer: Its AUC(0-t) is 17300 ng·h/mL.

Question: What about the AUC(0-t) ([5]; sorafenib AUC0–8 in responders) of the same molecule?
Answer: The AUC(0-t) was 38100 ng·h/mL.

Question: And the “AUC0–8, historical values with sorafenib alone” value [6]?
Answer: The value was 6,000–16,000 ng*h/mL.

Question: And the “HFSR incidence expected with monotherapy” value ([7]; anti-VEGF monotherapy, all grades)?
Answer: The value was 25–50%.

Question: And the “grade 3 HFSR incidence expected with monotherapy” value ([7]; anti-VEGF monotherapy)?
Answer: Its value is 10%.

Question: What about the “maximum tolerated dose (MTD) of sorafenib” value [7, 10] of the same molecule?
Answer: The value was 200 mg twice daily (BID).

Question: With CC[C@@]1(O)C(=O)OCc2c1cc1n(c2=O)Cc2cc3c(CN(C)C)c(O)ccc3nc2-1 [topotecan] as the molecule, how does the OS ([1]; topotecan alone, TRIAS) read?
Answer: The OS was 10 months.

Question: And the PFS ([1]; topotecan alone, TRIAS)?
Answer: The PFS was 4.4 months.

Question: Which PFS ([1]; bevacizumab added to chemotherapy, AURELIA, p<0.001) does the source give for bevacizumab here?
Answer: Its PFS is 6.7 months.

Question: What about the OS ([1]; bevacizumab added to chemotherapy, AURELIA, p=0.174) of the same molecule?
Answer: The OS was 16.6 months.

Question: What about the ORR [1, 11] of the same molecule?
Answer: Its ORR is 53.3%.

Question: What about the OS [1, 11] of the same molecule?
Answer: Its OS is 22.4 months.

Question: What about the PFS [1, 11] of the same molecule?
Answer: Its PFS is 10.4 months.

Question: What about the “ORR, single agent” value [1, 9] of the same molecule?
Answer: The value was 20%.

Question: What about the “OS, single agent” value [1, 9] of the same molecule?
Answer: Its value is 17 months.

Question: What about the “HTN incidence expected with monotherapy” value ([7]; human, in vivo) of the same molecule?
Answer: Its value is 15–30%.

Question: And the “maximum tolerated dose (MTD) of bevacizumab” value [7, 10]?
Answer: The value was 5 mg/kg Q2W.
